Reference: ChEMBL document CHEMBL1201862, “PubChem BioAssay data set” (2004)
Calls of active or inactive are those of the source.

Assays:
[1] = target: Disintegrin and metalloproteinase domain-containing protein 17 (Homo sapiens, UniProt P78536); assay: inhibition of ADAM17 substrate cleavage – biochemical, quenched FRET substrate, counter-screen for ADAM10 exosite inhibitor project, dose response (AID 743253)
[2] = potency of ADAM10 substrate cleavage blockers – biochemical, QFRET, dose response (AID 743254);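 further: ADAM10 enzyme with the DM2 quenched FRET peptide as substrate; EDANS fluorescence gain as the protease cuts the substrate; inhibitor potency against ADAM10 proteolytic activity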
[3] = Luminescence Cell-Based Dose Retest to Confirm Inhibitors of Cancer Stem Cells. [Related pubchem assays (depositor defined):AID2717, AID2721]; assay type: functional; details: Homo sapiens
[4] = loss of viability in HepG2 cells – cell-based, CellTiter-Glo, cherry-picked, cytotoxicity control for Shn3 inhibitor project, dose response (AID 624134); assay type: functional
[5] = reduction of Shn3 3'UTR-driven luciferase in osteoblasts – cell-based, Clone20 osteoblasts, firefly luciferase, cherry-picked, dose response (AID 624132); assay type: functional;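 further: firefly luciferase luminescence from reporter carrying the Shn3 3'UTR in osteoblasts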
[6] = viability inhibitors of stage V gametocytes – luminescence, dose response (AID 1117278); assay type: functional, cell-based;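 further: gametocytes exposed to compound for 24 hours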
[7] = viability loss in human Jurkat cells – cell-based, luminescence, cytotoxicity control for P. falciparum gametocyte viability project, dose response (AID 1117277); assay type: functional;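 further: potency reflects loss of cellular ATP meaning fewer viable cells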
[8] = microbe, parasite or virus in culture; assay type: functional; details: Mycobacterium tuberculosis
[9] = target: Mitogen-activated protein kinase 10 (Homo sapiens, UniProt P53779); assay: Dose response biochemical screening assay for inhibitors of c-Jun N-Terminal Kinase 3 (JNK3). [Related pubchem assays: 746 ]
[10] = target: E3 ubiquitin-protein ligase Mdm2 (Homo sapiens, UniProt Q00987); assay: MDM2-luc reporter signal enhancers, multi-concentration potency testing, MDM2 ubiquitin-protein ligase inhibitor program, whole-cell format, luminescence detection, 384-well microplate (AID 1394); assay type: functional;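 further: MDM2 E3 inhibitors raise luminescence so EC50 is for signal enhancement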
[11] = IC50 of Artemis nuclease activity blockers – biochemical, fluorescence intensity, dose response (AID 720701); assay type: functional;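 further: Artemis endonuclease enzyme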
H9c2 = assay: cells; assay type: functional, cell-based; details: Rattus norvegicus, H9c2, Myocardium;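 further: confirmatory concentration-response retest of ultra-high-throughput screening hits for modulation of myocardial damage; cell death induced by hydrogen peroxide oxidative stress; compound pretreatment for 60 min then peroxide exposure for 2 h; potency is for protecting the cells against peroxide damage rather than for killing them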
[12] = target: Sphingosine 1-phosphate receptor 2 (Homo sapiens, UniProt O95136); assay: Dose Response Cell Based Assay for Agonists of the S1P2 Receptor. [Related pubchem assays: 729, 736, 843 ]; assay type: functional
[13] = HGIII-sPLA2 enzyme inhibition potency – biochemical, QFRET, IC50, dose response (AID 743457);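 further: green fluorescence rise as the enzyme cleaves BODIPY PC-A2 in liposomes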
[14] = viability loss in HeLa cells – cytotoxicity control for MgcRacGAP inhibitor project, dose response (AID 624300); assay type: functional
[15] = target: Tyrosyl-DNA phosphodiesterase 2 (Homo sapiens, UniProt O95551); assay: potency against TDP2 phosphodiesterase activity – biochemical, epi absorbance, IC50, dose response (AID 743297)
Nonstructural protein 1 = Nonstructural protein 1 (Influenza A virus, UniProt Q194T2); assay type: functional, Influenza A virus (A/California/07/2009(H1N1))
Fatty acid synthase [16] = target: T1, Fatty acid synthase (Homo sapiens, UniProt P49327); assay: inhibition of human FAS-TE enzyme activity – biochemical, kinetic fluorescence intensity, dose response (AID 624326); assay type: functional;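 further: rate of fluorescence rise from hydrolysis of a fluorogenic O-methyl fluorescein ester substrate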
[17] = target: T2, Rac GTPase-activating protein 1 (Homo sapiens, UniProt Q9H0H5); assay: blockers of MgcRacGAP-driven Rac1 GTP hydrolysis – biochemical, ADP Hunter fluorescence, primary and confirmatory, confirmation (AID 624330); assay type: functional
T2 sequence (Q9H0H5 whole entry): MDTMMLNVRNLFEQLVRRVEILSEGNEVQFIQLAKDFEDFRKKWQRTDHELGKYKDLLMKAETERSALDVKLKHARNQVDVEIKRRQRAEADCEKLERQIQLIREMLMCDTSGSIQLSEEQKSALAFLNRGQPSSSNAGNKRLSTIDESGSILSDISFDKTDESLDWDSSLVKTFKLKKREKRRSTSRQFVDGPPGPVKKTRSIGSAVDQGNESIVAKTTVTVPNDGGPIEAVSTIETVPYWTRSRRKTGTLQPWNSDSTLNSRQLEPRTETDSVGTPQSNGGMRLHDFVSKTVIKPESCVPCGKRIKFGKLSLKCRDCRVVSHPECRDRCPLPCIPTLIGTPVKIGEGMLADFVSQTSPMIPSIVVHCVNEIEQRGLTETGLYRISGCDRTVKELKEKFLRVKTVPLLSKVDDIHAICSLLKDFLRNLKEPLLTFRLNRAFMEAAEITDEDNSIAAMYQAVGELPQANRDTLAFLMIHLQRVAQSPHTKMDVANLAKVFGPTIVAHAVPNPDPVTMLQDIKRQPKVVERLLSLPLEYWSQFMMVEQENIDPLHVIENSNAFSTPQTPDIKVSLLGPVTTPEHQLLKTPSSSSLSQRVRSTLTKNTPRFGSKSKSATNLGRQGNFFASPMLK

Fatty acid synthase [18] = target: T1, Fatty acid synthase; assay: inhibition of human FAS-TE enzyme activity – biochemical, endpoint fluorescence intensity, uHTS hits, dose response (AID 624327); assay type: functional;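 further: fluorescence from hydrolysis of an O-methyl fluorescein acyl ester substrate by the enzyme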
[19] = target: T3, Tyrosine-protein phosphatase non-receptor type 7 (Homo sapiens, UniProt P35236); assay: HePTP tyrosine phosphatase activity blockers – biochemical, absorbance, leukemia target, primary screen (AID 521); assay type: functional
T3 sequence (P35236 whole entry): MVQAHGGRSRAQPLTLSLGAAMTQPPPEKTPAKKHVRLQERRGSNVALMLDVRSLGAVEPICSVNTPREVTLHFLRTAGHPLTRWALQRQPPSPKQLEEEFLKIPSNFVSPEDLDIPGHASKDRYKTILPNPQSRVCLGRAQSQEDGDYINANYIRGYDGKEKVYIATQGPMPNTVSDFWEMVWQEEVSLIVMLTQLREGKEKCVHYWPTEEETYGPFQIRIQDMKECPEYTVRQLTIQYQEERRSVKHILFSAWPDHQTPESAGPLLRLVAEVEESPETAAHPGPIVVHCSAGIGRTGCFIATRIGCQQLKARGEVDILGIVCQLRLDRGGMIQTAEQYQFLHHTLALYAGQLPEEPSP

Protein skinhead-1 = target: T4, Protein skinhead-1 (Caenorhabditis elegans, UniProt P34707); assay type: functional
T4 sequence (P34707 whole entry): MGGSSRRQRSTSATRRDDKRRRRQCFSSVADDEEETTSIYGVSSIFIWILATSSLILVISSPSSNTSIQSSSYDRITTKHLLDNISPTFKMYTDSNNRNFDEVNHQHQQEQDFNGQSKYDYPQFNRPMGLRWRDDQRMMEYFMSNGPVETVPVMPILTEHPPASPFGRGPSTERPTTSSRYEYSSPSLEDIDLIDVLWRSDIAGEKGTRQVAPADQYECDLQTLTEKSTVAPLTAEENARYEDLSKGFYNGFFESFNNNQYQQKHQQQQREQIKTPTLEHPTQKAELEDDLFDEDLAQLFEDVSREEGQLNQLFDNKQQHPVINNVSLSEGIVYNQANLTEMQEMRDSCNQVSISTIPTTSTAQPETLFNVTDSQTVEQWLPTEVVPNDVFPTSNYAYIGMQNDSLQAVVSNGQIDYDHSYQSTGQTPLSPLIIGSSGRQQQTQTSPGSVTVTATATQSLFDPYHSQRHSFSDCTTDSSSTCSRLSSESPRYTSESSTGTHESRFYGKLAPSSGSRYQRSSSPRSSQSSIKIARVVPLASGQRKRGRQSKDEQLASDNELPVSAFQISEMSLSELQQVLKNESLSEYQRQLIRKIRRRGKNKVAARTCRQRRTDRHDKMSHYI

[20] = target: T5, Runt-related transcription factor 1/Core-binding factor subunit beta (Homo sapiens, UniProt Q01196+Q13951); assay: Runt domain/CBFb-SMMHC interaction disruptors – biochemical, TR-FRET (AID 1438); assay type: protein assay
[21] = target: T5, Runt-related transcription factor 1/Core-binding factor subunit beta; assay: disruptors of Runt domain/CBFb-SMMHC interaction – biochemical, FRET, Cerulean-Runt, Venus-CBFb-SMMHC, uHTS, […] (AID 1434); assay type: protein assay
cells [22] = assay type: functional, cell-based
cells [23] = assay type: functional, cell-based; remark: listed apart in the source

Disintegrin and metalloproteinase domain-containing protein 17, sequence (P78536 whole entry, the tested form may be a part): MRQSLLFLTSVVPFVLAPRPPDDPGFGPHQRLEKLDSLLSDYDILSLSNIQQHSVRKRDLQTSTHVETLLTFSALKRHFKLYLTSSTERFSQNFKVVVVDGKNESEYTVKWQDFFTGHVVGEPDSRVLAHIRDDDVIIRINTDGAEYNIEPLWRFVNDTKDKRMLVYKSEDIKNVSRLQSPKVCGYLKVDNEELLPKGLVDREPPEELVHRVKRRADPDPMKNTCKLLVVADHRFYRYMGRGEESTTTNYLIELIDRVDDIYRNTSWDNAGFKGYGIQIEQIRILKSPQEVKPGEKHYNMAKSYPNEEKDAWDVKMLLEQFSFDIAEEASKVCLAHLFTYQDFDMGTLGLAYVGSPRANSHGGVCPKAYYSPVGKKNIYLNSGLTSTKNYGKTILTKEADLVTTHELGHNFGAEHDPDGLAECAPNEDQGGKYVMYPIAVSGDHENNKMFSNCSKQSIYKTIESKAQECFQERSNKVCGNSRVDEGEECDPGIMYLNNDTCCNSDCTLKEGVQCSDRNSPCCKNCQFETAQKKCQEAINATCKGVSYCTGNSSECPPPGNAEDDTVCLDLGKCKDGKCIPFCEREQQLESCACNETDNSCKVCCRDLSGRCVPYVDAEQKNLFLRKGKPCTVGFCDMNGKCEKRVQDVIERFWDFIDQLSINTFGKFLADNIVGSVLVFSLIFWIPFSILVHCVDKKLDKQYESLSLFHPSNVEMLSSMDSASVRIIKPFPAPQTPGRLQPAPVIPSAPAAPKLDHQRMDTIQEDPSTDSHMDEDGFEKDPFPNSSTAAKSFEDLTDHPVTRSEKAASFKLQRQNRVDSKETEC
T1 sequence (P49327 whole entry): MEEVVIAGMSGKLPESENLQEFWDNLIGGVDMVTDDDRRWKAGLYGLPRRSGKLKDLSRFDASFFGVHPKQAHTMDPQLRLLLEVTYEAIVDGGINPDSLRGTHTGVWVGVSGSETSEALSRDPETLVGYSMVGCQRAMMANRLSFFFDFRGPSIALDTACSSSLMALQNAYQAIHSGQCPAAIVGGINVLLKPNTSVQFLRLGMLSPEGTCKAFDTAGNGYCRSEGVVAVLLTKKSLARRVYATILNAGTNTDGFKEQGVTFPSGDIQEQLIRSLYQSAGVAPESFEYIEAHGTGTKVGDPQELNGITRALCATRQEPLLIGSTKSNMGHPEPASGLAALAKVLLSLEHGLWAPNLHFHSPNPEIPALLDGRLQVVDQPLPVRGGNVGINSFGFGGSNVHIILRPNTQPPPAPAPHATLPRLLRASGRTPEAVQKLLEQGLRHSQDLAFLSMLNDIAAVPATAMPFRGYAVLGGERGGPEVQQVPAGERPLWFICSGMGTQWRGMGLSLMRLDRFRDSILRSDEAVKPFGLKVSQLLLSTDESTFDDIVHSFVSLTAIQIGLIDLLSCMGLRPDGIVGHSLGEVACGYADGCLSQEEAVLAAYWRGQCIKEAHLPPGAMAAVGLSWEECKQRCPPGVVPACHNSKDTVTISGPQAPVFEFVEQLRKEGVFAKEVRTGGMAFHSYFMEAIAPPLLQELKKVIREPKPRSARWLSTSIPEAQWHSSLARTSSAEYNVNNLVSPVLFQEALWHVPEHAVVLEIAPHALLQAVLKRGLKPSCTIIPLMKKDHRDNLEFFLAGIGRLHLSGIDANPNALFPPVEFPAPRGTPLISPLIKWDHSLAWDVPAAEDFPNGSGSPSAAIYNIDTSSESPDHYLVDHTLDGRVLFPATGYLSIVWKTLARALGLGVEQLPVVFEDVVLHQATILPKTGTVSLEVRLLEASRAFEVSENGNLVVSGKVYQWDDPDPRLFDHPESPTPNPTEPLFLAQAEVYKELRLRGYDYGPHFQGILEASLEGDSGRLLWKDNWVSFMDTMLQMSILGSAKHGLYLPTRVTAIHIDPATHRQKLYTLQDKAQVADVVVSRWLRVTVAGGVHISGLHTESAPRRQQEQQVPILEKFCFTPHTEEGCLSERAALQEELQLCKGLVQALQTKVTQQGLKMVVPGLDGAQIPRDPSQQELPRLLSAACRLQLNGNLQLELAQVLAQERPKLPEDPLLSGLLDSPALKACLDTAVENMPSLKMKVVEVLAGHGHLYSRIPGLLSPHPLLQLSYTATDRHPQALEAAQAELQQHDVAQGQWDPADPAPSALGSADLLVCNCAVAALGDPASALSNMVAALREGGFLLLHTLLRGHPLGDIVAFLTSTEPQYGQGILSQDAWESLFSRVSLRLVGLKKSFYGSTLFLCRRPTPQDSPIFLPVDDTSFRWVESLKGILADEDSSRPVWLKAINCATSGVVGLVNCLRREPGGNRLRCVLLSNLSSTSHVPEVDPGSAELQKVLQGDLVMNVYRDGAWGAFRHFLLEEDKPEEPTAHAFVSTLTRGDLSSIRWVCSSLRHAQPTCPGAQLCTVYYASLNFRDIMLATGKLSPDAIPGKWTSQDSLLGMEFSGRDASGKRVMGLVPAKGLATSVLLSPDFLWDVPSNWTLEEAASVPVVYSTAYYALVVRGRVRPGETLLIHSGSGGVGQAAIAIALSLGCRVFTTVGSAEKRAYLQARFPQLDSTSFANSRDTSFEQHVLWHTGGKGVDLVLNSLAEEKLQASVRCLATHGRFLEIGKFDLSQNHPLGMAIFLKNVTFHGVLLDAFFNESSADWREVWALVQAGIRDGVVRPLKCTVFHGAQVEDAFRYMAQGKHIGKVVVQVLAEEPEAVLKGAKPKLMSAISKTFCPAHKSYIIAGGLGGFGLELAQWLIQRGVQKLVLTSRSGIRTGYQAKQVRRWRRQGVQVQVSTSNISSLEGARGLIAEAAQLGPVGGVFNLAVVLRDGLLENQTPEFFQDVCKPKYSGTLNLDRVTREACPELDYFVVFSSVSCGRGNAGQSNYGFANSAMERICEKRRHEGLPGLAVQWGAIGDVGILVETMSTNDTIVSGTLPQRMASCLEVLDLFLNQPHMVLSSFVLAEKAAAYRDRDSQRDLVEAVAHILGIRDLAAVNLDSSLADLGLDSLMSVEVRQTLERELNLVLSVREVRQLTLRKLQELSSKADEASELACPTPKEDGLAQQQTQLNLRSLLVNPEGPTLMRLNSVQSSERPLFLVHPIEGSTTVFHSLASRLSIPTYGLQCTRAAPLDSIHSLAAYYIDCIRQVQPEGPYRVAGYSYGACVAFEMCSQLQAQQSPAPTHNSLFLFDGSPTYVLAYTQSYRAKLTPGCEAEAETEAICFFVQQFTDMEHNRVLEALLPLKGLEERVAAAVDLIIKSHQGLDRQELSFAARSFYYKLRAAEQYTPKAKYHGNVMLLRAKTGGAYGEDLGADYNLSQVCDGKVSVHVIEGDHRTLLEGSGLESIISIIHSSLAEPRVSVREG
E3 ubiquitin-protein ligase Mdm2, sequence (Q00987 whole entry): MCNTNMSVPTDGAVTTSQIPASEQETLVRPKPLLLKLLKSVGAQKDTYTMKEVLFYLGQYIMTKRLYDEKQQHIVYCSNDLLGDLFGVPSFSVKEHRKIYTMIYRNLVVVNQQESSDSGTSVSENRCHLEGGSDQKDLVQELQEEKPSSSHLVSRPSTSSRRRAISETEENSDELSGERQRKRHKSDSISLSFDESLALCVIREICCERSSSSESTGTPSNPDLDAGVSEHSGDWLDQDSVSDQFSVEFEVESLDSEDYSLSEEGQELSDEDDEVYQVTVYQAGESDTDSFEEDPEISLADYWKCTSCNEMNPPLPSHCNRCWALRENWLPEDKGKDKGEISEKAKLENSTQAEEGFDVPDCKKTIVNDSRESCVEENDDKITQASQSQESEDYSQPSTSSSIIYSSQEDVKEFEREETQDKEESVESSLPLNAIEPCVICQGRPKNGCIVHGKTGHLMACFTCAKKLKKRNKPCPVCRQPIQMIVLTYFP
Sphingosine 1-phosphate receptor 2, sequence (O95136 whole entry): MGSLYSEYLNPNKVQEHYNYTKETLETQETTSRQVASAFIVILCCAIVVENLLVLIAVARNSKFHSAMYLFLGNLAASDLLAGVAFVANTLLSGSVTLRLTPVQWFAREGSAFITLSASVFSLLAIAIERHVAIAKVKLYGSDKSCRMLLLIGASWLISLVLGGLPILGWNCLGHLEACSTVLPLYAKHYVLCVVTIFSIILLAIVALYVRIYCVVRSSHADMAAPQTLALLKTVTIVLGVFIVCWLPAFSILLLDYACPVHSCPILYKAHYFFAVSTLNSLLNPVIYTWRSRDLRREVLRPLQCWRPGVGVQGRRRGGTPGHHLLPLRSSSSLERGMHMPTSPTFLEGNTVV
T5 sequence (Q01196 whole entry, the tested form may be a part): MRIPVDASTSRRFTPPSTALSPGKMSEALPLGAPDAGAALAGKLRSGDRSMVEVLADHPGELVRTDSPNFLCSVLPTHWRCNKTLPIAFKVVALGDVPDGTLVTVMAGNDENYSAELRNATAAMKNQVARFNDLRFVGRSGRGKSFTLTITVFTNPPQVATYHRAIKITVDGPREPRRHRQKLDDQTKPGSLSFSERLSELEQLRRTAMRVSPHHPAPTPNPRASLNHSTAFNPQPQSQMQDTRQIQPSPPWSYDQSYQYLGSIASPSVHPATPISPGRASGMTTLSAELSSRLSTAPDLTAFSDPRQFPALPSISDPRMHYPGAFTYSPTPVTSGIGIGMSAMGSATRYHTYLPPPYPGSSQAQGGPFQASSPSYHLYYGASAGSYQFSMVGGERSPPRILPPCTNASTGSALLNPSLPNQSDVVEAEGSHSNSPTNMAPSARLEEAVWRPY
T5 sequence (Q13951 whole entry, the tested form may be a part): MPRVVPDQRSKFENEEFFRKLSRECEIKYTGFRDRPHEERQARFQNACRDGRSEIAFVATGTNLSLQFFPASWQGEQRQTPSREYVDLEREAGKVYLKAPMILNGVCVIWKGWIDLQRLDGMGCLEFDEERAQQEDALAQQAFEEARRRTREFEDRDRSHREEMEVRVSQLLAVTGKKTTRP
Nonstructural protein 1, sequence (Q194T2 whole entry): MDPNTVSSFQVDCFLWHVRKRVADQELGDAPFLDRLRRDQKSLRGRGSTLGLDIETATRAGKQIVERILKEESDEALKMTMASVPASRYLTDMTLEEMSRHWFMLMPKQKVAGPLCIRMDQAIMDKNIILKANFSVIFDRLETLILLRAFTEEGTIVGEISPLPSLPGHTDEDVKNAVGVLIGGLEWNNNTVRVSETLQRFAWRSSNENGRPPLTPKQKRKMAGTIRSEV

C[C@@H]1CN([C@@H](C)CO)C(=O)c2cc(NC(=O)Nc3ccc(F)cc3)ccc2O[C@@H]1CN(C)Cc1ccc(Oc2ccccc2)cc1
IC50 [1]: > 69.5 µM (inactive) | IC50 [2]: > 2.58 µM (active) | AC50 [3]: 2.95 µM (active) | AC50 [4]: 18.7 µM (active) | AC50 [5]: 9.38 µM (active)

Cc1ccc(CNC(=O)C2CCN(S(=O)(=O)N3CCCCC3)CC2)cc1
IC50 [6]: > 109 µM (inactive) | IC50 [7]: > 83.4 µM (inactive)

COc1cc(NC(=O)c2ccc(COc3ccccc3Br)o2)cc(OC)c1OC
CC50 [8]: > 40 µM (active) | IC50 [9]: 33 µM (not active)

COc1ccc(NC(=O)CCCCn2c(=O)[nH]c3ccccc3c2=O)cc1
IC50 [9]: 55.1 µM (not active)

O=C1CN(c2cc(Cl)cc(Cl)c2)C(=O)CN1/N=C/c1cccnc1
EC50 [10]: 0.01 µM (not active)

CCCCCCn1cnc2c(c1=O)c1nc3ccccc3nc1n2/N=C/c1ccco1
IC50 [11]: > 20 µM (inactive) | IC50 (H9c2): 19.1 µM (active)

CCOc1ccc(-n2c(SCC(=O)Nc3ccc(S(=O)(=O)Nc4nccs4)cc3)nnc2-c2ccc(C(C)(C)C)cc2)cc1
IC50 [1]: > 69.5 µM (inactive) | IC50 [2]: 9.71 µM (active)

O=S(=O)(Cc1ccc(Cl)cc1)NCC1CCCO1 (stereo not given)
EC50 [12]: > 50 µM (not active)

CCOC(=O)c1cc2c(=Cc3ccc(N(C)C)cc3)c3ccccc3n2[n+]1C
IC50 [13]: 36.1 µM (inactive) | CC50 [14]: 100 µM (active) | IC50 [15]: > 128 µM (inactive) | IC50 (Nonstructural protein 1): 12 µM (active) | IC50 (Fatty acid synthase [16]): 8.42 µM (active) | IC50 [17]: 42.5 µM (active) | IC50 (Fatty acid synthase [18]): 12.9 µM (active)

COc1cccc(CNC(=O)CN(c2cc(C)cc(C)c2)S(=O)(=O)c2c(C)noc2C)c1
EC50 [12]: > 50 µM (not active)

COc1ccc(OCC(=O)N/N=C(\C)CC(=O)Nc2cccc([N+](=O)[O-])c2)cc1
EC50 [10]: 15.7 µM (not active)

CCCCNC(=O)c1cc(-c2ccc(OC)c(OC)c2)on1
IC50 [19]: > 100 µM (not active)

CCN(CC)c1ccc(C(=O)OCC(=O)N2CCN(c3ccccc3)CC2)cc1
IC50 [19]: > 100 µM (not active)

N=c1c(C(=O)NCc2ccccc2)cc2c(=O)n3ccccc3nc2n1Cc1ccco1
IC50 (Protein skinhead-1): > 100 µM (inactive) | IC50 [20]: 36.6 µM (active) | IC50 [11]: > 20 µM (inactive) | IC50 [21]: 2.34 µM (active)

CCOC(=O)C1(C)NC(c2ccc(OC)cc2OC)C2C(=O)N(CC)C(=O)C21 (stereo not given)
IC50 [6]: > 109 µM (inactive) | EC50 (cells [22]): > 350 µM (not active) | EC50 (cells [23]): > 350 µM (not active) | IC50 [7]: > 83.3 µM (inactive)
